Structures can show the parent of a compound that is named as a salt.
Target: T1, human 5-HT4(a) (Homo sapiens, UniProt Q13639)
T1 construct: host or cells: GeneBlAzer HTR4-CRE-bla CHO-K1 cells
Experiment: Evaluation of agonistic activity in CHO-K1 cells expressing human 5-HT4(a) (GeneBlAzer HTR4-CRE-bla CHO-K1, beta-lactamase reporter)
Format: cell-based
Details: CHO-K1 cells stably expressing human 5-HT4(a)
Experimental: Test Example 1: Evaluation of Agonistic Activity in CHO-K1 Cells Expressing Human 5-HT4(a)
As CHO-K1 cells stably expressing human 5-HT4(a), we used the GeneBlAzer HTR4-CRE-bla CHO-K1 cells (Invitrogen Corp.). The cells were cultured, under the condition of 37[…] and 5% CO2, in a DMEM supplemented with 10% fetal bovine serum (FBS), 25 mM HEPES (pH7.4), 600 μg/ml hygromycin B, 0.1 mM non-essential amino acids, 100 unit/ml penicillin and 100 μg/ml streptomycin. Subcultures were performed three times per one week, each being at less than 80% confluence. At the previous day before treating test compounds, the cells were collected using 0.5% trypsin/EDTA and then diluted with a DMEM supplemented with 1% FBS, 25 mM HEPES, and 0.1 mM non-essential amino acids into 3.125×10^5 cells/ml. 32 μl of the diluted cells were added into 384-well plate (10^4 cells per well) and then incubated overnight. After the overnight culture, 8 μl of the medium having 1% of DMSO was added into the cell-free control well and the non-stimulating control well, respectively. 8 μl of the respective test compound dilutions (which had been prepared by diluting by 100-times with the medium as mentioned in the above) having 1% of DMSO were added to the respective remaining wells. After being cultured in the incubator for 5 hours, the wells of the 384-plate were treated with the substrate solution (8 μl per well) prepared according to the vendor's instruction (i.e., Invitrogen's instruction), and then incubated in the dark room for additional two hours. Agonistic activities on 5-HT4 receptor were evaluated, on the basis of fluorescence values of the cleavage-products by beta-lactamase. After exciting to 410 nm of wavelength using a fluorescence detector (Genios Pro), we measured the fluorescence values at two emission wavelengths (first wavelength: 465 nm, second wavelength: 535 nm). Data were analyzed on the basis of the ratio of fluorescence intensities of each well at the respective wavelengths. Each EC50 value was calculated by non-linear regression analysis using the “GraphPad Prism” program, based on the activities according to 8-different concentrations of the test compounds.

T1 sequence (Q13639 1-387 isoform Q13639-2): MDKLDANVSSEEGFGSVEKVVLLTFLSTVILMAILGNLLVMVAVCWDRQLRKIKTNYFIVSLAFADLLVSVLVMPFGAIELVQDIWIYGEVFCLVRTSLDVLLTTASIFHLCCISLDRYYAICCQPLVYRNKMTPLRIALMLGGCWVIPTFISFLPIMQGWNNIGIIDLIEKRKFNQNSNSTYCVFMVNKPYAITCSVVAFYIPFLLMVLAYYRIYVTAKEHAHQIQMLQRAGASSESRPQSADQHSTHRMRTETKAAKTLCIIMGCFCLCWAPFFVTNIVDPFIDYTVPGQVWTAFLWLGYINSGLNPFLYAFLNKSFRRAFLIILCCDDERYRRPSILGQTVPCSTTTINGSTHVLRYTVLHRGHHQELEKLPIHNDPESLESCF

| SMILES | EC50 [nM] |
| --- | --- |
| CCCc1cc(N2CC[C@H](NCc3ccc(C(F)(F)F)cc3)C2)nc(Nc2cccc(C#N)c2)n1 [Example 108, (S)-3-(4-propyl-6-{3-[4-(trifluoromethyl)benzylamino]pyrrolidin-1-yl}pyrimidin-2-ylamino)benzonitrile] | 0.21 |
| CCCc1cc(N2CC[C@H](NCc3ccc(OC(C)=O)cc3)C2)nc(Nc2cccc(C#N)c2)n1 [Example 109, (S)-4-({1-[2-(3-cyanophenylamino)-6-propylpyrimidin-4-yl]pyrrolidin-3-ylamino}methyl)phenylacetate] | 0.012 |
| CCCc1cc(N2CC[C@H](NCc3ccc(N(C)C)cc3)C2)nc(Nc2cccc(C#N)c2)n1 [Example 110, (S)-3-(4-{3-[4-(dimethylamino)benzylamino]pyrrolidin-1-yl}-6-propylpyrimidin-2-ylamino)benzonitrile] | 0.018 |
| CCCc1cc(N2CC[C@H](NCc3ccc[nH]3)C2)nc(Nc2cccc(C#N)c2)n1 [Example 111, (S)-3-(4-{3-[(1H-pyrrol-2-yl)methylamino]pyrrolidin-1-yl}-6-propylpyrimidin-2-ylamino)benzonitrile] | 0.008 |
| CCCc1cc(N2CC[C@H](NCc3cccs3)C2)nc(Nc2cccc(C#N)c2)n1 [Example 112, (S)-3-{4-propyl-6-[3-(thiophen-2-ylmethylamino)pyrrolidin-1-yl]pyrimidin-2-ylamino}benzonitrile] | 0.045 |
| CCCc1cc(N2CC[C@H](NCc3ccsc3)C2)nc(Nc2cccc(C#N)c2)n1 [Example 113, (S)-3-{4-propyl-6-[3-(thiophen-3-ylmethylamino)pyrrolidin-1-yl]pyrimidin-2-ylamino}benzonitrile] | 0.016 |
| CCCCN[C@H]1CCN(c2cc(CCC)nc(Nc3cccc(C#N)c3)n2)C1 [Example 116, (S)-3-{4-[3-(butylamino)pyrrolidin-1-yl]-6-propylpyrimidin-2-ylamino}benzonitrile] | 0.0035 |
| CCCc1cc(N2CC[C@H](NCCCSC)C2)nc(Nc2cccc(C#N)c2)n1 [Example 117, (S)-3-(4-{3-[3-(methylthio)propylamino]pyrrolidin-1-yl}-6-propylpyrimidin-2-ylamino)benzonitrile] | 0.014 |
| CCCc1cc(N2CC[C@H](NC)C2)nc(Nc2ccc3cc[nH]c3c2)n1 [Example 121, (S)-N-{4-[3-(methylamino)pyrrolidin-1-yl]-6-propylpyrimidin-2-yl}-1H-indol-6-amine] | 0.005 |
| CCCc1cc(N2CC[C@H](NC)C2)nc(Nc2ccc(N)c(C(F)(F)F)c2)n1 [Example 123, (S)-N^1-{4-[3-(methylamino)pyrrolidin-1-yl]-6-propylpyrimidin-2-yl}-3-(trifluoromethyl)benzene-1,4-diamine dihydrochloride] | 0.0019 |
| CCCc1cc(N2CC[C@H](NS(C)(=O)=O)C2)nc(Nc2cccc(C#N)c2)n1 [Example 125, (S)-N-{1-[2-(3-cyanophenylamino)-6-propylpyrimidin-4-yl]pyrrolidin-3-yl}methanesulfonamide] | 0.159 |
| CCCc1cc(N2CC[C@H](NC(C)CC)C2)nc(Nc2cccc(C#N)c2)n1 (stereo partly drawn) [Example 127, 3-{4-[(3S)-3-(sec-butylamino)pyrrolidin-1-yl]-6-propylpyrimidin-2-ylamino}benzonitrile] | 0.0062 |
| CCCc1cc(N2CC[C@H](NC(CC)CC)C2)nc(Nc2cccc(C#N)c2)n1 [Example 128, (S)-3-{4-[3-(pentan-3-ylamino)pyrrolidin-1-yl]-6-propylpyrimidin-2-ylamino}benzonitrile] | 0.039 |
| CCCc1cc(N2CC[C@H](NC(CC(C)C)CC(C)C)C2)nc(Nc2cccc(C#N)c2)n1 [Example 129, (S)-3-{4-[3-(2,6-dimethylheptan-4-ylamino)pyrrolidin-1-yl]-6-propylpyrimidin-2-ylamino}benzonitrile] | 0.323 |
| CCCc1cc(N2CC[C@H](NC(C)C(C)(C)O)C2)nc(Nc2cccc(C#N)c2)n1 (stereo partly drawn) [Example 131, (S)-3-{4-[3-(3-hydroxy-3-methylbutan-2-ylamino)pyrrolidin-1-yl]-6-propylpyrimidin-2-ylamino}benzonitrile] | 0.091 |
| CCCCC(C)N[C@H]1CCN(c2cc(CCC)nc(Nc3cccc(C#N)c3)n2)C1 (stereo partly drawn) [Example 133, (S)-3-{4-[3-(n-hexan-2-ylamino)pyrrolidin-1-yl]-6-propylpyrimidin-2-ylamino}benzonitrile] | 0.039 |

| SMILES | EC50 [nM] |
| --- | --- |
| CCCc1cc(N2CC[C@H](NC(C)CCC(C)C)C2)nc(Nc2cccc(C#N)c2)n1 (stereo partly drawn) [Example 134, (S)-3-{4-[3-(5-methylhexan-2-ylamino)pyrrolidin-1-yl]-6-propylpyrimidin-2-ylamino}benzonitrile] | 0.214 |
| CCCc1cc(N2CC[C@H](NC3CCCCC3)C2)nc(Nc2cccc(C#N)c2)n1 [Example 135, (S)-3-{4-[3-(cyclohexylamino)pyrrolidin-1-yl]-6-propylpyrimidin-2-ylamino}benzonitrile] | 0.011 |
| CCCc1cc(N2CC[C@H](NCCNC(=O)OC(C)(C)C)C2)nc(Nc2cccc(C#N)c2)n1 [Example 136, (S)-tert-butyl 2-{1-[2-(3-cyanophenylamino)-6-propylpyrimidin-4-yl]pyrrolidin-3-ylamino}ethylcarbamate] | 0.045 |
| CCCc1cc(N2CC[C@H](NC3CCN(Cc4ccccc4)CC3)C2)nc(Nc2cccc(C#N)c2)n1 [Example 137, (S)-3-{4-[3-(1-benzylpiperidin-4-ylamino)pyrrolidin-1-yl]-6-propylpyrimidin-2-ylamino}benzonitrile] | 0.072 |
| CCCc1cc(N2CC[C@H](NC(C)C)C2)nc(Nc2cccc(C#N)c2)n1 [Example 138, (S)-3-{4-[3-(isopropylamino)pyrrolidin-1-yl]-6-propylpyrimidin-2-ylamino}benzonitrile] | 0.012 |
| CCCc1cc(N2CC[C@H](NC3CCN(C(=O)c4ccccc4)CC3)C2)nc(Nc2cccc(C#N)c2)n1 [Example 139, (S)-3-{4-[3-(1-benzoylpiperidin-4-ylamino)pyrrolidin-1-yl]-6-propylpyrimidin-2-ylamino}benzonitrile] | 0.034 |
| CCCc1cc(N2CC[C@H](NC3CCN(C(C)=O)CC3)C2)nc(Nc2cccc(C#N)c2)n1 [Example 140, (S)-3-{4-[3-(1-piperidin-4-acetylpiperidin-4-ylamino)pyrrolidin-1-yl]-6-propylpyrimidin-2-ylamino}benzonitrile] | 0.028 |
| CCCc1cc(N2CC[C@H](NC3CCCCCCC3)C2)nc(Nc2cccc(C#N)c2)n1 [Example 141, (S)-3-{4-[3-(cyclooctylamino)pyrrolidin-1-yl]-6-propylpyrimidin-2-ylamino}benzonitrile] | 0.085 |
| CCCc1cc(N2CC[C@H](NC3CCC3)C2)nc(Nc2cccc(C#N)c2)n1 [Example 142, (S)-3-{4-[3-(cyclobutylamino)pyrrolidin-1-yl]-6-propylpyrimidin-2-ylamino}benzonitrile] | 0.01 |
| CCCc1cc(N2CC[C@H](NC3CCCC3)C2)nc(Nc2cccc(C#N)c2)n1 [Example 143] | 0.0066 |
| CCCc1cc(N2CC[C@H](NC3CN(C(=O)OC(C)(C)C)C3)C2)nc(Nc2cccc(C#N)c2)n1 [Example 144, (S)-tert-butyl 3-{1-[2-(3-cyanophenylamino)-6-propylpyrimidin-4-yl]pyrrolidin-3-ylamino}azetidine-1-carboxylate] | 0.036 |
| CCCc1cc(N2CC[C@H](NCCOCc3ccccc3)C2)nc(Nc2cccc(C#N)c2)n1 [Example 145, (S)-3-(4-{3-[2-(benzyloxy)ethylamino]pyrrolidin-1-yl}-6-propylpyrimidin-2-ylamino)benzonitrile] | 0.046 |
| CCCc1cc(N2CC[C@H](NC(=O)CC)C2)nc(Nc2cccc(C#N)c2)n1 [Example 146, (S)-N-{1-[2-(3-cyanophenylamino)-6-propylpyrimidin-4-yl]pyrrolidin-3-yl}propionamide] | 0.084 |
| C/C=C(\C)C(=O)N[C@H]1CCN(c2cc(CCC)nc(Nc3cccc(C#N)c3)n2)C1 [Example 149, (S,E)-N-{1-[2-(3-cyanophenylamino)-6-propylpyrimidin-4-yl]pyrrolidin-3-yl}-2-methylbut-2-enamide] | 0.277 |
| CCCCCC(=O)N[C@H]1CCN(c2cc(CCC)nc(Nc3cccc(C#N)c3)n2)C1 [Example 150, (S)-N-{1-[2-(3-cyanophenylamino)-6-propylpyrimidin-4-yl]pyrrolidin-3-yl}hexanamide] | 0.41 |
| CCCc1cc(N2CC[C@H](NC(=O)CCc3ccccc3)C2)nc(Nc2cccc(C#N)c2)n1 [Example 151, (S)-N-{1-[2-(3-cyanophenylamino)-6-propylpyrimidin-4-yl]pyrrolidin-3-yl}-3-phenylpropanamide] | 0.334 |

Reference: patent US9890138B2, “Diaminopyrimidine derivatives and processes for the preparation thereof” (YUHAN CORPORATION, priority 2011, dated 2018)
